Columns and labels:
[1] = system: Spontaneously hypertensive rats; experiment: Antihypertensive activity: systolic blood pressure by tail cuff method; assay type: in vivo; details: maximum at 1-4 hours post dose
Protocol: Systolic blood pressures were recorded by a modification of the tail cuff method described by I.M. Claxton, M.G. Palfreyman, R.H. Poyser, R.L. Whiting, European Journal of Pharmacology, 37, 179 (1976). A W+W BP recorder, model 8005 was used to display pulses. Prior to all measurements rats were placed in a heated environment (33.5 ± 0.5 °C) before transfer to a restraining cage. Each determination of blood pressure was the mean of at least 5 readings. Spontaneously hypertensive rats (ages 12-18 weeks) with systolic blood pressures >180 mmHg were considered hypertensive.

[2] = system: trachea; experiment: Bronchodilator activity: relaxation of isolated tracheal spirals; assay type: tissue-based, guinea pigs; details: Cavia porcellus; fall in resting tension as percentage of total relaxation evoked by 10⁻³M isoprenaline; guinea pig tracheal spirals, Krebs solution 37°C; read-out: IC₅₀
Protocol: Male guinea pigs (300-600g) were stunned by a blow to the head and bled from the carotid artery. The trachea was exposed, dissected free of connective tissue, and transferred to oxygenated Krebs solution at 37 °C. Next, spirals (2 per trachea) were prepared by cutting the whole trachea spirally along its longitudinal axis and then dividing this spiral lengthwise. Each preparation was mounted, using silk thread, in a 10ml organ bath filled with krebs solution at 37 °C and bubbled with 5% CO₂ with O₂. The resting tension of the preparations was set at 2g and changes in muscle tension were monitored isometrically by means of a UFI (2oz) force and displacement transducer (Ormed Ltd) connected to a Linseis pen recorder. All preparations were allowed to equilibrate for 60 minutes. During this equilibration period the preparations were washed by upward displacement at 15 minute intervals and, if necessary, the resting tension was readjusted to 2g using a mechanical micromanipulator system.
Once a steady resting tension had been obtained, the preparations were dosed simultaneously with the test compound (10⁻⁸-2x10⁻⁵M), and finally a maximum relaxation achieved by addition of 10⁻³M isoprenaline. The fall in tension evoked by the test compound was expressed as a percentage of the total relaxation evoked in the presence of 10⁻³ isoprenaline. […]

SMILES | % b.p. fall ([1]; Dose 3.0 mg/kg) | % b.p. fall ([1]; Dose 0.3 mg/kg) | other results
CC(C)(C)OC(=O)N[C@H]1[C@H](O)c2cc(C#N)ccc2OC1(C)C (relative stereo) [Example E1, trans-6-Cyano-2,2-dimethyl-3,4-dihydro-3-(t-butoxycarbonyl)amino-2H-1-benzopyran-4-ol] | 30% |  | 
CC1(C)Oc2ccc(C#N)cc2[C@@H](O)[C@@H]1NC(=O)c1ccc(F)cc1 (relative stereo) [Example E3, trans-6-Cyano-2,2-dimethyl-3,4-dihydro-3-(4-fluorobenzoylamino)-2H-1-benzopyran-4-ol] | 42% |  | 
CC(C)(C)NC(=O)N[C@H]1[C@H](O)c2cc(C#N)ccc2OC1(C)C (relative stereo) [Example E5, trans-6-Cyano-2,2-dimethyl-3,4-dihydro-3-(t-butylureido)-2H-1-benzopyran-4-ol] |  | ≧40% | IC50 [2]: 2800 nM
CC(C)NC(=O)N[C@H]1[C@H](O)c2cc(C#N)ccc2OC1(C)C (relative stereo) [Example E14, trans-6-Cyano-2,2-dimethyl-3,4-dihydro-3-(isopropylureido)-2H-1-benzopyran-4-ol] |  | 22% | 
CC(C)(C)C(=O)N[C@H]1[C@H](O)c2cc(C#N)ccc2OC1(C)C (relative stereo) [Example E21, trans-6-Cyano-2,2-dimethyl-3,4-dihydro-3-trimethylacetylamino-2H-1-benzopyran-4-ol] |  |  | % b.p. fall ([1]; Dose 1.0 mg/kg): 36%

From EP0375449B1, “Benzopyran-type compounds” (BEECHAM GROUP PLC, priority 1988, dated 1990)
